According to patent US6221914A, “Sulfonamide bridging compounds that inhibit tryptase activity” (Array Biopharma Inc., priority 1998, dated 2001):

Assays:
Format in all cases: biochemical
Human plasma kallikrein = biological target: T1, Human plasma kallikrein (Homo sapiens, UniProt P03952); assay: Ki determination, human plasma kallikrein (H-D-Prolyl-Phe-Arg-pNA); conditions: 50 mM Tris-HCl, pH 7.8, 200 mM NaCl, 0.05% BSA; read-out: Experimentally Determined Ki, Plasma Kallikrein
T1 construct: from tissue; host or cells: human plasma
Description: (§1) Protease inhibition was assayed according to published procedures with minor modifications using various proteases and specific chromogenic peptide p-nitroanilide substrates. Assays were performed in Costar ultra-low cluster 96-well microtiter plate (Costar Corning Corp., Cambridge Mass.). Each protease was incubated with various concentrations of the test compound for 15 min. at 37° C. or as otherwise indicated, in specific assay buffer, and the residual activity was then measured by addition of the substrate. p-Nitroaniline produced by the proteolysis was determined by measuring the change in absorbance at 405 nm on a SpectraMAX 340 plate reader (Molecular devices, Sunnyvale, Calif.).
(§2) 1. The inhibition constant, Ki is calculated from individual data points using the equation for a tight-binding inhibitor (See Beith, "Proteinase Inhibitors-Proceedings of 2nd Int. Res. Conference", Fritz, et al. eds, New York, p.4463-4469 (1974)):
(§3) vi /vo [((Ki '+[I]+[E]o)^2 -4 [I]o
(§4) [E]o)^1/2 (Ki '+[I]o -[E]o)]/2[E]o
(§5) where Ki ' is apparent inhibition constant; vi and vo are the inhibited and uninhibited rates, respectively; [I]o and [E]o are the total concentrations of inhibitor and enzyme, respectively.
(§6) [note: [E]o is determined by active site titration of enzyme]
(§7) The Ki values are obtained by correcting Ki ' values for the effect of substrate concentration according to: [formula]
(§8) 2. Other inhibition data (Ki >>[E]o), the Ki is calculated from using the equations for a competitive inhibitor: [formula]
I. Human Plasma and r-Tissue Kallikrein
Human plasma and r-tissue kallikrein activity were determined in 50 mM Tris-HCl, pH 7.8, 200 mM NaCl, 0.05% BSA by using H-D-Prolyl-Phe-Arg-pNA and DL-Val-Leu-Arg-pNA, respectively (See Lottenberg, et al., Meth. Enzymol. 80, 341-361 (1981)).
(§9) The inhibition constant (Ki) of the test compounds against each proteolytic enzyme was determined according to Zitnik et al., Biochem. Biophys. Res. Commun. 232, 687-697 (1997)).

Human lung tryptase = assay: Ki determination, human lung tryptase (Tosyl-Gly-Pro-Arg-pNA substrate); conditions: 50 mM Tris-HCl pH 8.0, 37° C., 1 nM tryptase, 320 μM GPR-pNA; read-out: Experimentally Determined Ki, Tryptase
Description: as §1, §2, §3, §4, §5, §6, §7, §8
Human lung tryptase purchased from Cortex Biochem (San Leandro, Calif.) was purified further on a Superdex 200 gel-filtration column. The active-site concentration of the enzyme was determined by spectrophotometric titration with 4-nitrophenyl 4'-guanidinobenzoate according to Schwartz, et al., J. Immunol., 114, 2304-2311 (1990). Tryptase activity was measured according to the procedures of Schwartz, et al., J. Biol. Chem., 261, 7372-7379 (1986) (See also, Schwartz, L. B., Methods In Enzymology, 244, 88 (1994)) with minor modifications, using Tosyl-Gly-Pro-Arg-p-nitroanilide ("GPR-pNA", Sigma Chemical Co., St. Louis, Mo., T-1637) as a chromogenic substrate. The reaction was performed in 50 mM Tris-HCl, pH 8.0, containing 150 mM NaCl and 0.02% Triton X-100 at 37° C. in Costar ultra-low cluster 96-well microtiter plates (Costar Corning Corp., Cambridge, Mass.). The amount of pNA produced by tryptase was determined by measuring the change in absorbance at 405 nm on a SpectraMAX 340 plate reader (Molecular devices, Sunnyvale, Calif.). The Km for the substrate was determined by Lineweaver-Burk analysis from initial velocities of substrate hydrolysis. The inhibition assay was carried out in a total volume of 200 μL. Tryptase (30 μL- final concentration 1 nM) was incubated with various concentrations of sample compound (50 μL) to be tested in the above assay buffer for 5 min. The reaction was started by the addition of substrate GPR-pNA (40 μL-final concentration 320 μM), and the residual activity was measured after 15 min. of incubation. The inhibition constant, Ki, was determined by fitting the inhibition data to a two-site competitive binding equation using data analysis program GraphPad PRISM (GraphPad Software, Inc., San Diego, Calif.).
as §9

[1] = biological target: T2, Human Neutrophil Cathepsin G (Homo sapiens, UniProt P08311); assay: Ki determination, human neutrophil cathepsin G (N-Suc-Ala-Ala-Pro-Phe-pNA); conditions: 625 mM Tris-HCl, pH 7.5, 2.5 mM MgCl2, 0.125% Brij 35; read-out: Experimentally Determined Ki, Cathepsin G
T2 construct: from tissue; host or cells: human neutrophils
T2 sequence (P08311 21-255): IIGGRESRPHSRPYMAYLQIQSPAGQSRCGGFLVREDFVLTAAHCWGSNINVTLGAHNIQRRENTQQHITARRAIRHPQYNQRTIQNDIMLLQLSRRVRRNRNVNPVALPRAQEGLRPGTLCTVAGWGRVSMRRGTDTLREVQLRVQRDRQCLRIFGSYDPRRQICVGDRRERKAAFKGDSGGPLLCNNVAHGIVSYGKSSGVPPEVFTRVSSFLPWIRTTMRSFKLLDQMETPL
Description: as §1, §2, §3, §4, §5, §6, §7, §8
Human Neutrophil Cathepsin G activity was determined by using N-Suc-Ala-Ala-Pro-Phe-pNA in 625 mM Tris-HCl, pH 7.5, 2.5 mM MgCl2, 0.125% Brij 35 (See Groutas et al., Arch. Biochem. Biophys. 294, 144-146 (1992)).
as §9

T1 sequence (P03952 391-638 limits assumed): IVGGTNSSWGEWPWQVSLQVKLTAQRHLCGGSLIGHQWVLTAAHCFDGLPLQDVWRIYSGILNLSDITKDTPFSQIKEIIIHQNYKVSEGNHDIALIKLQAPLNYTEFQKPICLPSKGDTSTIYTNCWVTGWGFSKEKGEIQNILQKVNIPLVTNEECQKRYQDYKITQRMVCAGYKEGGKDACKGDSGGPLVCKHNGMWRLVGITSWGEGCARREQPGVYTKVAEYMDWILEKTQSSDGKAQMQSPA
T1 sequence (P03952 20-390 partner limits assumed): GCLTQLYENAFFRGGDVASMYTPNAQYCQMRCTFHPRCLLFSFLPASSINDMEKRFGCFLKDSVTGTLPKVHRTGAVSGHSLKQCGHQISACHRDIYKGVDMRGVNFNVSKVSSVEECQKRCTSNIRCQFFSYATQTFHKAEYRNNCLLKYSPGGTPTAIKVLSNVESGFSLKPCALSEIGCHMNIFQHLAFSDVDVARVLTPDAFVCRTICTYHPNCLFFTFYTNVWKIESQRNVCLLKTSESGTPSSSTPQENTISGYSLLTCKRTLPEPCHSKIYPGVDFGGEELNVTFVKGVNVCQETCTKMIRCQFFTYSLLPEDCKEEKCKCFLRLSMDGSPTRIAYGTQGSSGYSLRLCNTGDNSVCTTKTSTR

## CN(Cc1ccc(OCCCOc2ccc(CN(C)S(=O)(=O)c3cccc(C(=N)N)c3)cc2)cc1)S(=O)(=O)c1cccc(C(=N)N)c1 [Example 68, 1,3-Bis-{4-[(3-carbamimidoyl-benzenesulfonyl-[N-methyl]-amino)-methyl]-phenoxy}-propane]
Human plasma kallikrein
  Ki: 4.3 µM
Human lung tryptase
  Ki: 20 nM
[1]
  Ki: > 100 µM

## N=C(N)c1ccc(C(=O)NCc2cccc(OCCCCCOc3cccc(CNC(=O)c4ccc(C(=N)N)cc4)c3)c2)cc1 [Example 76, 1,5-Bis-{3-[(4-carbamimidoyl-benzenecarbonylamino)-methyl]-phenoxy}-pentane]
Human plasma kallikrein
  Ki: 2.8 µM
Human lung tryptase
  Ki: 5 nM
[1]
  Ki: > 100 µM

## N=C(N)c1cccc(C(=O)NCc2cccc(OCCCCCOc3cccc(CNC(=O)c4cccc(C(=N)N)c4)c3)c2)c1 [Example 77, 1,5-Bis-{3-[(3-carbamimidoyl-benzenecarbonylamino)-methyl]-phenoxy}-pentane]
Human plasma kallikrein
  Ki: 2.9 µM
Human lung tryptase
  Ki: 10 nM
[1]
  Ki: > 100 µM

## N=C(N)c1ccc(C(=O)NCc2ccc(OCCCOc3ccc(CNC(=O)c4cccc(C(=N)N)c4)cc3)cc2)cc1 [Example 85, 4-Carbamimidoyl-N-[4-(3-{4-[(3-carbamimidoyl-benzoylamino)-methyl]-phenoxy}-propoxy)-benzyl]-benzamide]
Human plasma kallikrein
  Ki: 1.7 µM
Human lung tryptase
  Ki: 3 nM
[1]
  Ki: > 100 µM

## N=C(N)c1ccc(C(=O)NCc2ccc(OCCCOc3ccc(CNS(=O)(=O)c4cccc(C(=N)N)c4)cc3)cc2)cc1 [Example 86, 4-Carbamimidoyl-N-[4-(3-{4-[(3-carbamimidoyl-benzenesulfonylamino)-methyl]-phenoxy}-propoxy)-benzyl]-benzamide]
Human plasma kallikrein
  Ki: 1.4 µM
Human lung tryptase
  Ki: 3 nM
[1]
  Ki: > 100 µM

## N=C(N)c1ccc(C(=O)NCc2ccc(OCCCOc3ccc(CNC(=O)c4ccc(CN)cc4)cc3)cc2)cc1 [Example 87, N-[4-(3-{4-[(4-Aminomethyl-benzoylamino)-methyl]-phenoxy}-propoxy)-benzyl]-4-carbamimidoyl-benzamide]
Human plasma kallikrein
  Ki: 3.5 µM
Human lung tryptase
  Ki: 2 nM
[1]
  Ki: > 100 µM

## N=C(N)c1ccc(C(=O)NCc2ccc(OCC3(COc4ccc(CNC(=O)c5ccc(C(=N)N)cc5)cc4)CCC3)cc2)cc1 [Example 93, 1,1-Bis-{4-[(4-carbamimidoyl-benzoyl-amino)-methyl]-phenoxy-methyl}-cyclobutane]
Human plasma kallikrein
  Ki: 3.9 µM
Human lung tryptase
  Ki: 1 nM
[1]
  Ki: > 100 µM

## N=C(N)c1ccc2cc(C(=O)NCc3ccc(OCCOc4ccc(CNC(=O)c5ccc6cc(C(=N)N)ccc6c5)cc4)cc3)ccc2c1 [Example 100, 1,2-Bis-{4-[(6-carbamimidoylnaphthalene-2-carbonylamino)-methyl]-phenoxy}-ethane]
Human plasma kallikrein
  Ki: > 100 µM
Human lung tryptase
  Ki: 0.2 nM
[1]
  Ki: > 100 µM

## N=C(N)c1ccc2[nH]c(CC(=O)NCc3ccc(OCCCOc4ccc(CNC(=O)Cc5nc6cc(C(=N)N)ccc6[nH]5)cc4)cc3)nc2c1 [Example 107, 2-(5-Carbamimidoyl-1H-benzoimidazol-2-yl)-N-{4,-[3-(4-{2-(5-carbamimidoyl-1H-benzoimidazol-2-yl)acetylaminol-methyl}-phenoxy)-propoxy]-benzyl}-acetamide]
Human plasma kallikrein
  Ki: 12 µM
Human lung tryptase
  Ki: 12 nM
[1]
  Ki: > 100 µM

## N=C(N)c1ccc2[nH]c(CC(=O)NCc3ccc(OCCCCCOc4ccc(CNC(=O)Cc5nc6cc(C(=N)N)ccc6[nH]5)cc4)cc3)nc2c1 [Example 108]
Human plasma kallikrein
  Ki: 4.3 µM
Human lung tryptase
  Ki: 9 nM
[1]
  Ki: > 100 µM

## N=C(N)c1ccc2[nH]c(CC(=O)NCc3ccc(OCCCCOc4ccc(CNC(=O)Cc5nc6cc(C(=N)N)ccc6[nH]5)cc4)cc3)nc2c1 [Example 109]
Human plasma kallikrein
  Ki: 2.5 µM
Human lung tryptase
  Ki: 8 nM
[1]
  Ki: > 100 µM

## N=C(N)c1ccc2sc(C(=O)NCc3ccc(OCCCOc4ccc(CNC(=O)c5cc6cc(C(=N)N)ccc6s5)cc4)cc3)cc2c1 [Example 117, 1,3-Bis-{4-[(5-carbamidoyl-2-benzthiophenyl-carbamido)-methyl]-phenoxy}-propane]
Human plasma kallikrein
  Ki: > 100 µM
Human lung tryptase
  Ki: 12 nM
[1]
  Ki: > 100 µM
